In patent US11058680B2, “Combinations of opioid/TLR4 antagonists and acetaminophen for use in the treatment of emotional pain and insomnia” (Allodynic Threapeutics, LLC, priority 2016, dated 2021):

Test system: migraine attacks
Experiment: Naltrexone/acetaminophen open-label pilot study, acute treatment of migraine: headache pain (4-point scale; relief score ≤1, pain-free score = 0), associated symptoms, additional meds
Assay type: in vivo, human
Method: Sixteen unique patients were enrolled in an open phase pilot study for the acute treatment of migraine attacks, insomnia, and emotional pain. Of the sixteen patients, eleven were evaluated for one migraine attack, one for two attacks, two for four attacks, one for six attacks, and one for fourteen attacks. A total of forty-one […] treatments were evaluated. Patients received a single dose of one of the following treatment options:
The majority of the patients remained in the clinic for observation for 2 hours after dosing. They completed headache diary assessments immediately before and after dosing at time points: 7, 15, and 30 minutes; and 1, 1.5, 2, 3, 6, 12, 24, and 48 hours. Headache pain was assessed on a 4-point scale (0=none; 1=mild; 2=moderate; 3=severe). The assessment of photophobia, phonophobia, nausea, and neck/shoulder pain was assessed as present or absent. The assessment of emotional pain was recorded on a 4-point scale (0=none, 1=mild, 2=moderate, 3=severe). The assessment of difficulty sleeping or falling asleep (insomnia) was assessed on a 4-point scale (0=none, 1=mild, 2=moderate, 3=severe) at baseline, for the night before treatment and for the following nights at 24, and 48 hours. Patients recorded side effects severity at each time point. Patients recorded the time of the first rescue medication dose and all additional headache medications used within 48 hours. Patients were required to stay awake to record their assessments in the first 2 hours, sleeping was permitted thereafter. While asleep, assessments were completed according to patients' best estimation. For data analysis, it was assumed that a migraine attack is a unique patient. Patients were asked to specify (yes or no answer) to whether they experienced emotional pain symptoms such as: hurt feelings, sadness, fear, or anger. Patients who replied positively to having emotional pain were asked to specify the cause into one of the following options: relationship, work/school, money/debt, health, or loss/grief.

[1] = 7 min, NTX/APAP 2.25 mg/325 mg, NTX 2.25 mg
[2] = 7 min, NTX/APAP 3.25 mg/325 mg, NTX 3.25 mg
[3] = 7 min, NTX/APAP 5 mg/325 mg, NTX 5 mg
[4] = 7 min, naltrexone/acetaminophen 2.25 mg/325 mg (N=15), naltrexone 2.25 mg (N=3)
[5] = 15 min, NTX/APAP 2.25 mg/325 mg, NTX 2.25 mg
[6] = 15 min, NTX/APAP 3.25 mg/325 mg, NTX 3.25 mg
[7] = 15 min, NTX/APAP 5 mg/325 mg, NTX 5 mg
[8] = 15 min, NTX/APAP […]325 mg, NTX 1.5 mg
[9] = 15 min, naltrexone/acetaminophen 2.25 mg/325 mg (N=21), naltrexone 2.25 mg (N=9)
[10] = 30 min, NTX/APAP 2.25 mg/325 mg, NTX 2.25 mg
[11] = 30 min, NTX/APAP 3.25 mg/325 mg, NTX 3.25 mg
[12] = 30 min, NTX/APAP 5 mg/325 mg, NTX 5 mg
[13] = 30 min, NTX/APAP […]325 mg, NTX 1.5 mg
[14] = 30 min, naltrexone/acetaminophen 2.25 mg/325 mg (N=21), naltrexone 2.25 mg (N=9)
[15] = 1 h, NTX/APAP 2.25 mg/325 mg, NTX 2.25 mg
[16] = 1 h, NTX/APAP 3.25 mg/325 mg, NTX 3.25 mg

O=C1CC[C@@]2(O)[C@H]3Cc4ccc(O)c5c4[C@@]2(CCN3CC2CC2)[C@H]1O5 [naltrexone]
Additional meds taken [1]: 0 (0)
Headache pain-free [1]: 0 (0) n (%)
Headache pain-relief [1]: 0 (0) n (%)
Most bothersome symptom free [1]: 0 (0) n (%)
Nausea-free [1]: 0 (0) n (%)
Neck/shoulder pain-free [1]: 2 (67) n (%)
Phonophobia-free [1]: 2 (67) n (%)
Photophobia-free [1]: 0 (0) n (%)
Additional meds taken [2]: 0
Headache pain-free [2]: 0 n (%)
Headache pain-relief [2]: 0 n (%)
Most bothersome symptom free [2]: 0 n (%)
Nausea-free [2]: 2 n (%)
Neck/shoulder pain-free [2]: 0 n (%)
Phonophobia-free [2]: 0 n (%)
Photophobia-free [2]: 1 n (%)
Additional meds taken [3]: 0
Headache pain-free [3]: 0 n (%)
Headache pain-relief [3]: 0 n (%)
Most bothersome symptom free [3]: 0 n (%)
Nausea-free [3]: 0 n (%)
Neck/shoulder pain-free [3]: 0 n (%)
Phonophobia-free [3]: 0 n (%)
Photophobia-free [3]: 0 n (%)
Additional meds taken (7 min, all doses combined): 0 (0)
Headache pain-free (7 min, all doses combined): 0 (0) n (%)
Headache pain-relief (7 min, all doses combined): 0 (0) n (%)
Most bothersome symptom free (7 min, all doses combined): 0 (0) n (%)
Nausea-free (7 min, all doses combined): 2 (33) n (%)
Neck/shoulder pain-free (7 min, all doses combined): 2 (33) n (%)
Phonophobia-free (7 min, all doses combined): 2 (33) n (%)
Photophobia-free (7 min, all doses combined): 1 (16) n (%)
Headache pain-free [4]: 0%
Most bothersome symptom-free [4]: 0%
Additional meds taken [5]: 0 (0)
Headache pain-free [5]: 0 (0) n (%)
Headache pain-relief [5]: 4 (44) n (%)
Most bothersome symptom free [5]: 1 (11) n (%)
Nausea-free [5]: 3 (33) n (%)
Neck/shoulder pain-free [5]: 4 (44) n (%)
Phonophobia-free [5]: 4 (44) n (%)
Photophobia-free [5]: 3 (33) n (%)
Additional meds taken [6]: 0
Headache pain-free [6]: 0 n (%)
Headache pain-relief [6]: 2 n (%)
Most bothersome symptom free [6]: 0 n (%)
Nausea-free [6]: 3 n (%)
Neck/shoulder pain-free [6]: 0 n (%)
Phonophobia-free [6]: 0 n (%)
Photophobia-free [6]: 1 n (%)
Additional meds taken [7]: 1
Headache pain-free [7]: 0 n (%)
Headache pain-relief [7]: 0 n (%)
Most bothersome symptom free [7]: 0 n (%)
Nausea-free [7]: 0 n (%)
Neck/shoulder pain-free [7]: 0 n (%)
Phonophobia-free [7]: 0 n (%)
Photophobia-free [7]: 0 n (%)
Additional meds taken [8]: 0
Headache pain-free [8]: 0 n (%)
Headache pain-relief [8]: 1 n (%)
Most bothersome symptom free [8]: 0 n (%)
Nausea-free [8]: 2 n (%)
Neck/shoulder pain-free [8]: 1 n (%)
Phonophobia-free [8]: 0 n (%)
Photophobia-free [8]: 0 n (%)
Additional meds taken (15 min, all doses combined): 0 (0)
Headache pain-free (15 min, all doses combined): 0 (0) n (%)
Headache pain-relief (15 min, all doses combined): 7 (44) n (%)
Most bothersome symptom free (15 min, all doses combined): 1 (6) n (%)
Nausea-free (15 min, all doses combined): 8 (50) n (%)
Neck/shoulder pain-free (15 min, all doses combined): 5 (31) n (%)
Phonophobia-free (15 min, all doses combined): 4 (25) n (%)
Photophobia-free (15 min, all doses combined): 4 (25) n (%)
Headache pain-free [9]: 0%
Headache pain-relief [9]: 44%
Most bothersome symptom-free [9]: 11%
Additional meds taken [10]: 0
Headache pain-free [10]: 2 (22) n (%)
Headache pain-relief [10]: 7 (78) n (%)
Most bothersome symptom free [10]: 6 (67) n (%)
Nausea-free [10]: 8 (88) n (%)
Neck/shoulder pain-free [10]: 6 (67) n (%)
Phonophobia-free [10]: 7 (78) n (%)
Photophobia-free [10]: 5 (56) n (%)
Additional meds taken [11]: 0 (0)
Headache pain-free [11]: 0 (0) n (%)
Headache pain-relief [11]: 2 (66) n (%)
Most bothersome symptom free [11]: 0 (0) n (%)
Nausea-free [11]: 2 (66) n (%)
Neck/shoulder pain-free [11]: 0 (0) n (%)
Phonophobia-free [11]: 0 (0) n (%)
Photophobia-free [11]: 1 (33) n (%)
Additional meds taken [12]: 0 (0)
Headache pain-free [12]: 0 (0) n (%)
Headache pain-relief [12]: 0 (0) n (%)
Most bothersome symptom free [12]: 0 (0) n (%)
Nausea-free [12]: 0 (0) n (%)
Neck/shoulder pain-free [12]: 1 (100) n (%)
Phonophobia-free [12]: 1 (100) n (%)
Photophobia-free [12]: 1 (100) n (%)
Additional meds taken [13]: 0 (0)
Headache pain-free [13]: 0 (0) n (%)
Headache pain-relief [13]: 2 (66) n (%)
Most bothersome symptom free [13]: 0 (0) n (%)
Nausea-free [13]: 2 (66) n (%)
Neck/shoulder pain-free [13]: 1 (33) n (%)
Phonophobia-free [13]: 0 (0) n (%)
Photophobia-free [13]: 0 (0) n (%)
Additional meds taken (30 min, all doses combined): 0 (0)
Headache pain-free (30 min, all doses combined): 2 (13) n (%)
Headache pain-relief (30 min, all doses combined): 10 (63) n (%)
Most bothersome symptom free (30 min, all doses combined): 6 (38) n (%)
Nausea-free (30 min, all doses combined): 12 (75) n (%)
Neck/shoulder pain-free (30 min, all doses combined): 8 (50) n (%)
Phonophobia-free (30 min, all doses combined): 8 (50) n (%)
Photophobia-free (30 min, all doses combined): 7 (48) n (%)
Headache pain-free (30 min, naltrexone 1.5 mg (N=3)): 0%
Headache pain-free [14]: 22%
Headache pain-relief [14]: 78%
Most bothersome symptom-free [14]: 67%
Headache pain-free (30 min, naltrexone/acetaminophen 3.25 mg/325 mg (N=3), naltrexone 3.25 mg (N=3)): 0%
Additional meds taken [15]: 0 (0)
Headache pain-free [15]: 4 (44) n (%)
Headache pain-relief [15]: 8 (88) n (%)
Most bothersome symptom free [15]: 7 (77) n (%)
Nausea-free [15]: 9 (100) n (%)
Neck/shoulder pain-free [15]: 6 (66) n (%)
Phonophobia-free [15]: 8 (88) n (%)
Photophobia-free [15]: 6 (66) n (%)
Additional meds taken [16]: 0
Headache pain-free [16]: 3 (100) n (%)
